A value given as a limit tells only on which side of the number the result lay.

The test concerns NCI-H929 multiple myeloma cells. As to the kind of experiment: Cell Titer-GLO (CTG) assay for proliferation of NCI-H929 cells. It counts as cell-based. Particulars: Homo sapiens, 72 hours. As for the experimental part:
1. Experimental objective: To determine inhibitory activities of compounds on NCI-H929 multiple myeloma cells.
NCI-H929 cells, purchased from Nanjing Cobioer Biotechnology Co., Ltd, were cultured in RPM11640 (Viva; C3010-0500) medium containing 10% fetal bovine serum (Viva, C04002-500) and 1% of penicillin-streptomycin at 37° C. with 5% of C02 and saturated humidity conditions.
The cells in logarithmic growth phase were plated at 5000 cells per well of a 96-well plate and after overnight incubation, compounds at 0.00512 nM, 0.0256 nM, 0.128 nM, 0.64 nM, 3.2 nM, 16 nM, 80 nM, and 400 nM were dosed into the plate with each dose in 2 duplicate wells. Cells were incubated at 37° C., 5% CO2 for 72 hours. After the incubation, the plate was placed at room temperature for half an hour, and then 50 μL of Cell Titer-Glo® (Promega, G7573) was added. The plate was placed on a shaker for uniform mixing for 2 minutes and was placed in the dark at room temperature for 10 minutes. The luminance signal was measured using SpectraMax Paradigm (Molecular Devices).
Cell activity inhibition rate (%)=1 00−(RLUcompound−RLUblank)/(RLUcontrol−RLUblank)×100%, where control refers to the 0.1% DMSO treatment group, and blank refers to the culture medium control. IC50 values and maximum inhibition rates of the compounds were calculated using a nonlinear regression function “Dose-Response-Inhibition” in Graphpad Prism 7.0.
As a reminder, the IC50 is the concentration at which inhibition is half-maximal. Regarding `Cc1nc(N2CCN(Cc3ccc(Cc4ccc5c6c(cccc46)C(=O)N5C4CCC(=O)NC4=O)cc3)CC2)cc(-n2cnc(C)n2)n1` (single isomer, unassigned) [Example 47], the half-inhibitory concentration (IC50) stood at 0.02 nM.

Turning to `O=C1CCC(N2C(=O)c3cccc4c(Cc5ccc(CN6CCN(c7cccc(-n8ccnc8)n7)CC6)cc5)ccc2c34)C(=O)N1` (centres unmarked) [Example 2, 3-(6-(4-((4-(6-(1H-imidazol-1-yl)pyridin-2-yl)piperazin-1-vi)methyl)benzyl)-2-oxobenzo[cd]indol-1(2H)-yl)piperidin-2,6-dione], the IC50 stood at 0.02 nM.

Regarding `O=C1CCC(N2C(=O)c3cccc4c(Cc5ccc(CN6CCC(NC(=O)c7cccc(-n8ccnc8)n7)CC6)cc5)ccc2c34)C(=O)N1` (centres unmarked) [Example 6, N-(1-(4-((1-(2,6-dioxopiperidin-3-yl)-2-oxo-1,2-dihydrobenzo[cd]indol-6-yl)methyl)benzyl)piperidin-4-yl)-6-(1H-imidazol-1-yl)pyridin-2-carboxamide], the IC50 worked out at 0.07 nM. This IC50 lies about 3.5-fold higher than the previous one. On to `O=C1CCC(N2C(=O)c3cccc4c(Cc5ccc(CN6CCC(NC(=O)c7ccnc(-n8ccnc8)n7)CC6)cc5)ccc2c34)C(=O)N1` (centres unmarked) [Example 7, N-(1-(4-((1-(2,6-dioxopiperidin-3-yl)-2-oxo-1,2-dihydrobenzo[cd]indol-6-yl)methyl)benzyl)piperidin-4-yl)-2-(1H-imidazol-1-yl)pyrimidin-4-carboxamide], for which 0.05 nM corresponded to half-maximal inhibition (IC50). On to `O=C1CCC(N2C(=O)c3cccc4c(Cc5ccc(CN6CCN(CC7CCN(c8cccc(-n9ccnc9)n8)CC7)CC6)cc5)ccc2c34)C(=O)N1` (centres unmarked) [Example 8, 3-(6-(4-((4-((1-(6-(1H-imidazol-1-yl)pyridin-2-yl)piperidin-4-yl)methyl)piperazin-1-yl)methyl)benzyl)-2-oxobenzo[cd]indol-1(2H)-yl)piperidin-2,6-dione], for which half-maximal inhibition (IC50) was put at 0.04 nM. With `O=C1CCC(N2C(=O)c3cccc4c(Cc5ccc(CN6CCC(Nc7ccnc(-n8ccnc8)n7)CC6)cc5)ccc2c34)C(=O)N1` (centres unmarked) [Example 9, 3-(6-(4-((4-((2-(1H-imidazol-1-yl)pyrimidin-4-yl)amino)piperidin-1-yl)methyl)benzyl)-2-oxobenzo[cd]indol-1(2H)-yl)piperidin-2,6-dione], the IC50 worked out at 0.07 nM. To `Cc1cc(N2CCN(Cc3ccc(Cc4ccc5c6c(cccc46)C(=O)N5C4CCC(=O)NC4=O)cc3)CC2)nc(-n2ccnc2)n1` (centres unmarked) [Example 10, 3-(6-(4-((4-(2-(1H-imidazol-1-yl)-6-methylpyrimidin-4-yl)piperazin-1-yl)methyl)benzyl)-2-oxobenzo[cd]indol-1(2H)-yl)piperidin-2,6-dione] belongs 0.03 nM; to `Cc1cc(C(=O)N2CCN(Cc3ccc(Cc4ccc5c6c(cccc46)C(=O)N5C4CCC(=O)NC4=O)cc3)CC2)nc(-n2ccnc2)n1` (centres unmarked) [Example 11, 3-(6-(4-((4-(2-(1H-imidazol-1-yl)-6-methylpyrimidin-4-carbonyl)piperazin-1-yl)methyl)benzyl)-2-oxobenzo[cd]indol-1(2H)-yl)piperidin-2,6-dione], 0.05 nM. For the compound `Cc1cc(C(=O)NC2CCN(Cc3ccc(Cc4ccc5c6c(cccc46)C(=O)N5C4CCC(=O)NC4=O)cc3)CC2)nc(-n2ccnc2)n1` (centres unmarked) [Example 12, N-(1-(4-((1-(2,6-dioxopiperidin-3-yl)-2-oxo-1,2-dihydrobenzo[cd]indol-6-yl)methyl)benzyl)piperidin-4-yl)-2-(1H-imidazol-1-yl)-6-methylpyrimidin-4-carboxamide], the IC50 is 0.07 nM. On to `O=C1CCC(N2C(=O)c3cccc4c(Cc5ccc(CN6CCN(c7ccnc(-n8ccnc8C(F)(F)F)n7)CC6)cc5)ccc2c34)C(=O)N1` (centres unmarked) [Example 13, 3-(2-oxo-6-(4-((4-(2-(2-(trifluoromethyl)-1H-imidazol-1-yl)pyrimidin-4-yl)piperazin-1-yl)methyl)benzyl)benzo[cd]indol-1(2H)-yl)piperidin-2,6-dione], for which the concentration for half-maximal inhibition (IC50) was 0.07 nM. In other words, the picomolar range. The compound `O=C1CC[C@H](N2Cc3c(OCc4ccc(CN5CCN([C@H]6CC[C@H](NC(=O)c7ccnc(-n8ccnc8)n7)CC6)CC5)cc4)cccc3C2=O)C(=O)N1` [Example 15, N-((1R,4R)-4-(4-(4-(((2-((S)-2,6-dioxopiperidin-3-yl)-1-oxoisoindolin-4-yl)oxy)methyl)benzyl)piperazin-1-yl)cyclohexyl)-2-(1H-imidazol-1-yl)pyrimidin-4-carboxamide] displayed an IC50 of 0.1 nM. As to `O=C1CC[C@H](N2Cc3c(OCc4ccc(CN5CCN([C@H]6CC[C@H](NC(=O)c7cccc(-n8ccnc8)n7)CC6)CC5)cc4)cccc3C2=O)C(=O)N1` [Example 16, N-((1R,4R)-4-(4-(4-(((2-((S)-2,6-dioxopiperidin-3-yl)-1-oxoisoindolin-4-yl)oxy)methyl)benzyl)piperazin-1-yl)cyclohexyl)-6-(1H-imidazol-1-yl)pyridin-2-carboxamide], 0.05 nM corresponded to half-maximal inhibition (IC50). `O=C1CC[C@H](N2Cc3c(OCc4ccc(CN5CCN(CC6CCN(c7cccc(-n8ccnc8)n7)CC6)CC5)cc4)cccc3C2=O)C(=O)N1` [Example 17, (S)-3-(4-((4-((4-((1-(6-(1H-imidazol-1-yl)pyridin-2-yl)piperidin-4-yl)methyl)piperazin-1-yl)methyl)benzyl)oxy)-1-oxoisoindolin-2-yl)pyridin-2,6-dione] gave an IC50 of 0.1 nM.

In turn, `O=C1CC[C@H](N2Cc3c(OCc4ccc(CN5CCN(c6cccc(-c7cncs7)n6)CC5)cc4)cccc3C2=O)C(=O)N1` [Example 19, (S)-3-(1-oxo-4-((4-((4-(6-(thiazol-5-yl)pyridin-2-yl)piperazin-1-yl)methyl)benzyl)oxy)isoindolin-2-yl)piperidin-2,6-dione] returned an IC50 of 0.3 nM. This IC50 is about 3-fold higher than that of the compound before. As for `Cn1cncc1-c1nccc(N2CCN(Cc3ccc(Cc4ccc5c6c(cccc46)C(=O)N5C4CCC(=O)NC4=O)cc3)CC2)n1` (centres unmarked) [Example 20, 3-(6-(4-((4-(2-(1-methyl-1H-imidazol-5-yl)pyrimidin-4-yl)piperazin-1-yl)methyl)benzyl)-2-oxobenzo[cd]indol-1(2H)-yl)piperidin-2,6-dione], the IC50 amounted to 0.01 nM. For the compound `CC(C)n1cnnc1-c1cccc(N2CCN(Cc3ccc(Cc4ccc5c6c(cccc46)C(=O)N5C4CCC(=O)NC4=O)cc3)CC2)n1` (centres unmarked) [Example 24, 3-(6-(4-((4-(6-(4-isopropyl-4H-1,2,4-triazol-3-yl)pyridin-2-yl)piperazin-1-yl)methyl)benzyl)-2-oxobenzo[cd]indol-1(2H)-yl)piperidin-2,6-dione], the IC50 worked out at 0.1 nM. The figure for `O=C1CCC(N2C(=O)c3cccc4c(Cc5ccc(CN6CCN(c7ccnc(-n8cnc(C9CC9)c8)n7)CC6)cc5)ccc2c34)C(=O)N1` (centres unmarked) [Example 26, 3-(6-(4-((4-(2-(4-cyclopropvl-1H-imidazol-1-yl)pyrimidin-4-yl)piperazin-1-yl)methyl)benzyl)-2-oxobenzo[cd]indol-1(2H)-yl)piperidin-2,6-dione] is 0.06 nM; for `O=C1CCC(N2C(=O)c3cccc4c(Cc5ccc(CN6CCC(O[C@H]7CC[C@@H](NC(=O)c8cccc(-n9ccnc9)n8)CC7)CC6)cc5)ccc2c34)C(=O)N1` (some centres unmarked) [Example 27, N-((1s,4s)-4-((1-(4-((1-(2,6-dioxopiperidin-3-yl)-2-oxo-1,2-dihydrobenzo[cd]indol-6-yl)methyl)benzyl)piperidin-4-yl)oxy)cyclohexyl)-6-(1H-imidazol-1-yl)pyridin-2-carboxamide] it is 0.1 nM. The compound `Cc1nncn1-c1cccc(N2CCN(Cc3ccc(Cc4ccc5c6c(cccc46)C(=O)N5C4CCC(=O)NC4=O)cc3)CC2)n1` (centres unmarked) [Example 28, 3-(6-(4-((4-(6-(3-methyl-4H-1,2,4-triazol-4-yl)pyridin-2-yl)piperazin-1-yl)methyl)benzyl)-2-oxobenzo[cd]indol-1(2H)-yl)piperidin-2,6-dione] showed an IC50 of 0.03 nM. As to `Cc1nc(N2CCN(Cc3ccc(Cc4ccc5c6c(cccc46)C(=O)N5C4CCC(=O)NC4=O)cc3)CC2)cc(-n2cnc(C(F)(F)F)c2)n1` (centres unmarked) [Example 29, 3-(6-(4-((4-(2-methyl-6-(4-(trifluoromethyl)-1H-imidazol-1-yl)pyrimidin-4-yl)piperazin-1-yl)methyl)benzyl)-2-oxobenzo[cd]indol-1(2H)-yl)piperidin-2,6-dione], inhibition was half-maximal at 0.02 nM (IC50).

The compound `O=C1CCC(N2C(=O)c3cccc4c(Cc5ccc(CN6CC(N7CCN(c8cccc(-n9ccnc9)n8)CC7)C6)cc5)ccc2c34)C(=O)N1` (centres unmarked) [Example 32] displayed an IC50 of less than 0.005 nM.

`O=C1CC[C@H](N2C(=O)c3cccc4c(Cc5ccc(CN6CCN(c7ccnc(-n8cnc(C(F)(F)F)c8)n7)CC6)cc5)ccc2c34)C(=O)N1` [Example 33, (S)-3-(2-oxo-6-(4-((4-(2-(4-(trifluoromethyl)-1H-imidazol-1-yl)pyrimidin-4-yl)piperazin-1-yl)methyl)benzyl)benzo[cd]indol-1(2H)-yl)piperidin-2,6-dione] gave an IC50 of 0.02 nM. This counts as picomolar. In turn, `O=C1CC[C@@H](N2C(=O)c3cccc4c(Cc5ccc(CN6CCN(c7ccnc(-n8cnc(C(F)(F)F)c8)n7)CC6)cc5)ccc2c34)C(=O)N1` [Example 34, (R)-3-(2-oxo-6-(4-((4-(2-(4-(trifluoromethyl)-1H-imidazol-1-yl)pyrimidin-4-yl)piperazin-1-yl)methyl)benzyl)benzo[cd]indol-1(2H)-yl)piperidin-2,6-dione] displayed a 50% inhibitory concentration (IC50) of 0.03 nM.
